Results as given in patent publication US20230381205A1, “COMPOSITIONS AND METHODS FOR TREATING NEURONAL DISORDERS WITH CANNABINOIDS” (INMED PHARMACEUTICALS INC., priority 2020, published 2023).

How the values were obtained:
[1] = test system: differentiated SH-SY5Y human neuronal cells; test: MTT assay: neuroprotection from Aβ1-42 induced cytotoxicity; type: cell-based; conditions: FIG. 7
Method: Cell Culture and Differentiation: The SH-SY5Y human neuronal cell line was derived from neuroblastoma established from a metastatic bone tumor (patient with neuroblastoma). The cells were maintained in DMEM:F12 culture medium supplemented with 10% FBS and 1% Antibiotic-Antimycotic penicillin/streptomycin (growth medium) at 37° C. in a humidified atmosphere of 5% CO2. To induce neuronal differentiation of SH-SY5Y cells, culture media was replaced by a growth medium containing Retinoic Acid (RA) for 4-5 days at 37° C. in a humidified atmosphere of 5% CO2.
Compounds and Dosing Formulations: Selected cannabinoids: CBD, CBDA, CBC, CBG, CBGA, CBN, CBND and Δ^9-THC were procured from Cayman Chemicals and TRC. Ethanol (100%) was used as the solvent to prepare 1 and 10 mM stock solutions. Treatment concentrations for CBGA were prepared at 0.5 μM, 1.5 μM, 5 μM, 10 μM, 15 μM, 20 μM. Treatment concentrations for CBD, CBDA, CBC, CBN, CBND and Δ^9-THC were prepared at 0.5, 1.5, 5 and for CBG at 0.5 μM, 1.5 μM, 5 μM, 10 μM, 15 μM. Treatments were prepared directly in the control medium (DMEM:F12+5% FBS+1% Antibiotic-Antimycotic) by using appropriate stock solutions.
Evaluation of Cytotoxicity and Neuroprotection: Evaluation of cannabinoids neuroprotection and cytotoxicity on differentiated SH-SY5Y human neuronal cells was carried out by MTT (3-(4,5-dimethylthiazol-2-yl)-2,5-diphenyltetrazolium bromide) assay. Initially, cannabinoid cytotoxicity and neuroprotection were evaluated in a primary screen assay without the presence of cytotoxicity inducing insult agents. […] The Retinoic Acid (RA) differentiated SH-SY5Y neuronal cells were seeded onto 96-well plates (10,000 cells/well) in DMEM:F12 complete medium. Cells were differentiated for 4-5 days in the presence of RA.
MTT Assay: For the MTT assay, differentiated SH-SY5Y neuronal cells were treated with cannabinoids at various concentrations for 72 hrs in the presence of STSR at 75 nM, 100 nM, 150 nM and 200 nM or for 24 hrs in the presence of […] at 5 μM, respectively and processed to determine cytotoxicity. Briefly, 5 mg/mL of methylthiazolyldiphenyl-tetrazolium bromide (Sigma-Aldrich) stock solution was prepared in PBS. Following treatment of SH-SY5Y neuronal cells with cannabinoids for 72 hrs, the cells were incubated with 20 μL of MTT stock solution in 200 μL DMEM for 2 hrs at 37° C. Following subsequent washes with PBS, 200 μL of isopropanol was added to each well. The resulting change in color from dissolving formazan salt was immediately quantified using a spectrophotometer (BMG Labtech) at a wavelength of 570 nm. […] The results are illustrated in FIGS. 1-7.

[2] = test system: CB1R; test: Changes in CB1 receptor expression and translocation; type: cell-based; conditions: CBGA 5 μM, 10 μM, dose-dependent; FIG. 11
Description: FIG. 11 Changes in receptor expression.

[3] = test system: differentiated SH-SY5Y cells; test: Neurite length / neuritogenesis in differentiated SH-SY5Y cells; type: cell-based, human
Method: FIG. 12 provides representative photomicrographs illustrating CBGA mediated changes in neurite elongation and branching in differentiated SH-SY5Y cells in a dose dependent manner. […] FIG. 12 also provides a histogram showing gradual changes in neurite length following treatment with CBGA.
FIG. 14 Morphological characterization of CBGA, THC and CBN mediated changes in differentiated SH-SY5Y cells. SH-SY5Y cells were differentiated with RA (10 μM) for 5 days as indicated. (A) Representative confocal photomicrographs showing changes in the cellular distribution of Tuj1 in RA induced differentiated SH-SY5Y cells following treatment with CBGA, THC and CBN. (B) Histogram showing the effect of CBGA, CBN, THC on neurite length.

[4] = test system: differentiated SH-SY5Y cells; test: Confocal immunofluorescence of MAP2 and neurite morphology; type: cell-based, human; conditions: FIG. 16
Method: SH-SY5Y cells were differentiated with RA (10 μM) for 5 days as indicated.
Accordingly, the effect of CBGA on the expression of MAP-2 was tested.

CCCCCc1cc(O)c(C/C=C(\C)CCC=C(C)C)c(O)c1C(=O)O [CBGA, 3-[(2E)-3,7-dimethylocta-2,6-dienyl]-2,4-dihydroxy-6-pentylbenzoic acid]
protection from Aβ1-42 induced insult ([1]; 0.15 μM, 0.5 μM, 1.5 μM, 5 μM, 10 μM and 15 μM with Aβ1-42 5 μM, dose-dependent): protected cells
effect with Aβ1-42 at the highest concentration ([1]; 20 μM with Aβ1-42 5 μM): resulted in cell death
CB1R expression and translocation [2]: promotes translocation of CB1R to the Golgi apparatus
neurite length ([3]; 24 hours post treatment, FIG. 14 (B)): increased neurite length significantly
neuritogenesis (neurite length) ([3]; dose dependent, FIG. 12): significantly increased the neuritogenesis
MAP-2 expression, corrected total cell fluorescence ([4]; CBGA 10 μM on otherwise untreated cells): promoted upregulation of MAP-2
neurite morphology ([4]; CBGA alone): elongated neurites and enhanced arborization
MAP2 expression ([4]; CBGA treatment of Aβ1-42 exposed cells): restores MAP2 expression
